Test results: US20250352445A1, “COMPOSITIONS FOR SEBUM CONTROL” (Dyson Operations Pte. Ltd., priority 2022, published 2025)

Test system: Primary sebocytes
Assay: Lipid reduction in primary sebocytes, AdipoRed dye, mean fluorescence intensity by flow cytometry
Type: cell-based, human
Conditions: primary sebocytes incubated 3 days, 10 μM for the compound, 31.25 μg/mL for the extract, average of 10,000 cells
Procedure: Primary sebocytes were derived from the forehead of a person. The same cell line was used in all experiments. Flow cytometry experiments were conducted on the BD LSR Fortessa X-20 as follows: Sebocytes stained with a lipid dye (AdipoRed™) were first analyzed according to size and granularity with only single cells selected for AdipoRed™ signal intensity measurement. […] Cells treated with compositions of the invention were compared to vehicle-treated cells to determine the percentage of lipid reduction. […] The cells were washed with PBS buffer [5 mL for a 10 cm culture plate] and then incubated at 37° C. with 0.125% Trypsin-EDTA (Gibco, 15400054) [2 mL of Trypsin for a 10 cm culture plate] for 5-10 minutes. […] When all cells had detached, fixative solution (250 μL; […] The tubes were stored on ice before flow cytometry. Mean fluorescence intensity of the lipid signal can be obtained from the flow cytometer plot which are used to determine the inhibitory effect of the compounds on the sebocytes. The lipid reduction effects of the compositions of the invention were measured against DMSO as a negative control, and against the known lipid-reducing compounds epigallocatechin gallate (EGCG) and salicylic acid (SA) as positive controls. The results are shown in Table 3 and FIGS. 1 to 7.

**Q.** With O=C(O[C@@H]1Cc2c(O)cc(O)cc2O[C@@H]1c1cc(O)c(O)c(O)c1)c1cc(O)c(O)c(O)c1 [EGCG, epigallocatechin gallate] as the molecule, how does the “Percentage Reduction in Mean Fluorescence Intensity (Against DMSO Control)” value read?
**A.** 13.4%
